Assay results: patent US20200010910A1, “Cytotoxic Chemotherapy-Based Predictive Assays for Acute Myeloid Leukemia” (The Regents of The University of California, priority 2017, published 2020)

How the values were obtained:
[1] = system: 5637R; assay: MTT assay IC50, oxaliplatin-resistant bladder cancer sub-line; format: cell-based, human; conditions: 5637R, 72 hours
Description: Drug-DNA adduct formation and repair was measured by accelerator mass spectrometry.
To confirm that 5637 was the original ATCC cell line, and that 5637R originated from the parental 5637 cell line, both cultures were sent to the ATCC Cell Line Authentication Service for cell verification per the ATCC protocol. More specifically, fifteen short tandem repeat (STR) loci plus the gender determining locus, amelogenin, were amplified using the commercially available PowerPlex® 16HS Kit from Promega.
These two cell lines were also cultured with a range of concentrations of cisplatin, carboplatin, gemcitabine, doxorubicin, methotrexate and vinblastine for 72 hours to determine IC50 for these other drugs (FIG. 16C). These drugs were chosen because of their frequent use in the treatment of bladder cancer.

[2] = system: PDX Model BL0440; assay: PDX tumor growth under chemotherapy; format: in vivo, NSG mice; conditions: cisplatin 2 mg/kg IV Q7Dx3, gemcitabine 150 mg/kg IP Q7Dx4
Description: (§1) Female NSG mice (5-8 weeks of age, body weight: 20 to 25 g) were obtained from Jackson Laboratories (CA, USA). […] To establish multiple PDXs to allow efficacy studies with multiple drugs, PDXs from passage 2-4 were minced into 1 mm^3 sections and injected subcutaneously into multiple mice. […] G/C combination chemotherapy consisted of the simultaneous administration of both drugs using the schema described above. Tumor growth was assessed by measuring palpable tumors with a caliper and calculating tumor volume. […] DNA was isolated using a modified Wizard procedure (Promega), quantitated by spectrophotometry, and then stored frozen at −20° C. until AMS analysis. […] Primary tumor tissue from four bladder cancer patients were implanted in NSG mice to create the PDX models described in Table 5. […] Of the four distinct tumors tested in the PDX model, three were resistance to cisplatin (BL0269, BL0293, BL0645) and two were resistance to gemcitabine (BL0269, BL0645) as single agent therapies.

[3] = system: PDX Model BL0269; assay: PDX tumor growth under chemotherapy; format: in vivo, NSG mice; conditions: cisplatin 2 mg/kg IV Q7Dx3, gemcitabine 150 mg/kg IP Q7Dx4
Description: as §1

[4] = system: PDX Model BL0293; assay: PDX tumor growth under chemotherapy; format: in vivo, NSG mice; conditions: cisplatin 2 mg/kg IV Q7Dx3, gemcitabine 150 mg/kg IP Q7Dx4
Description: as §1

[5] = system: PDX Model BL0645; assay: PDX tumor growth under chemotherapy; format: in vivo, NSG mice; conditions: cisplatin 2 mg/kg IV Q7Dx3, gemcitabine 150 mg/kg IP Q7Dx4
Description: as §1

[6] = system: HCC827; assay: MTT assay IC50; format: cell-based, human
Description: (§2) Six non-small cell lung cancer (NSCLC) cell lines were treated in culture with [^14C]carboplatin. Carboplatin-DNA monoadduct levels over time were determined by measuring ^14C content in genomic DNA with accelerator mass spectrometry (AMS). Cellular sensitivity to carboplatin and cisplatin was analyzed by the MTT assay (Henderson et al., International Journal of Cancer 2011).
(§3) Human NSCLC cell lines H23, H460, H727, HCC827, H1975, and A549 were purchased from ATCC and were cultured with the recommended medium. The MTT assay was performed as previously reported to determine the drug concentration required to inhibit cell growth by 50% (IC50) of cisplatin and carboplatin. [^14C]Carboplatin (at 53 mCi/mmol) was mixed with unlabeled carboplatin to achieve the specific activities required for microdoses and therapeutic doses. Table 1 lists the six NSCLC cell lines and summarizes their IC50 characteristics, induced carboplatin-DNA monoadducts when treated with [^14C]carboplatin, and p and r^2 values for correlation analysis to the IC50 concentrations.

[7] = system: H727; assay: MTT assay IC50; format: cell-based, human
Description: as §2, §3

[8] = system: H1975; assay: MTT assay IC50; format: cell-based, human
Description: as §2, §3

[9] = system: H23; assay: MTT assay IC50; format: cell-based, human
Description: as §2, §3

[10] = system: H460; assay: MTT assay IC50; format: cell-based, human
Description: as §2, §3

[11] = system: TCCSUP; assay: MTT assay IC50, bladder cancer cell line; format: cell-based
Source text: (§4) If these diadducts are the predominant DNA lesion responsible for cell death, then the IC50 of the two drugs should be linearly related. Thus, we measured the IC50 of the six NSCLC cell lines from Example 2 to both cisplatin and carboplatin to determine if the sensitivity of these six NSCLC cell lines to the two drugs are correlated. We observed a statistically significant linear correlation of the cytotoxicity of these two drugs in the 6 cell lines used in this study (R^2=0.72, p=0.033, FIG. 9A) and also to six additional ATCC bladder cancer cell lines. (R^2=0.72, p=0.033), FIG. 9B).

[12] = system: T24; assay: MTT assay IC50, bladder cancer cell line; format: cell-based
Source text: as §4

[13] = system: HT1197; assay: MTT assay IC50, bladder cancer cell line; format: cell-based
Source text: as §4

[14] = system: RT4; assay: MTT assay IC50, bladder cancer cell line; format: cell-based
Source text: as §4

[15] = system: J82; assay: MTT assay IC50, bladder cancer cell line; format: cell-based
Source text: as §4

[16] = system: PDX Model BL0440; assay: drug-DNA adducts in PDX tumor by AMS; format: in vivo, NSG mice; conditions: microdose 0.092 mg/kg gemcitabine, 24 h
Source text: (§5) Female NSG mice (5-8 weeks of age, body weight: 20 to 25 g) were obtained from Jackson Laboratories (CA, USA). All animals were kept under pathogen-free conditions and were allowed to acclimatize for at least 4 days prior to any experiments. PDX models bearing the indicated patient derived xenografts were created by subcutaneous injection at the flank of 1 mm^3 tumor tissue. To establish multiple PDXs to allow efficacy studies with multiple drugs, PDXs from passage 2-4 were minced into 1 mm^3 sections and injected subcutaneously into multiple mice. At least 3 mice were used for each treatment group. Tumors were allowed to grow to at about 100 mm^3 before being assessed for drug sensitivity or the induction of DNA adducts by the administration of a microdose or a therapeutic dose of labeled drug. To assess tumor response to chemotherapy, cisplatin was administered at 2 mg/kg IV every 7 days for a total of 3 cycles, or gemcitabine was administered at 150 mg/kg IP every 7 days for a total of 4 cycles. G/C combination chemotherapy consisted of the simultaneous administration of both drugs using the schema described above. Tumor growth was assessed by measuring palpable tumors with a caliper and calculating tumor volume. Drug-DNA adduct frequencies were measured in tumor tissue collected 24 hours after intravenous injection of labeled drug and stored at −80° C. until DNA isolation. DNA was isolated using a modified Wizard procedure (Promega), quantitated by spectrophotometry, and then stored frozen at −20° C. until AMS analysis. Ten micrograms of DNA per sample was converted to graphite and measured by AMS for 14C quantification as previously described.
(§6) NSG mice bearing the indicated PDX tumors were injected with a microdose of ^14C-labeled carboplatin (FIG. 22A) or ^14C-labeled gemcitabine (FIG. 22B). The microdose of ^14C-labeled carboplatin was 0.375 mg/kg carboplatin, 50,000 dpm/g. The microdose of ^14C-labeled gemcitabine was 0.092 mg/kg gemcitabine, 1000 dpm/g. The doses of each drug administered to the mice were chosen to target 1 μM in plasma concentration of carboplatin and 0.3 μM in plasma concentration of gemcitabine. These plasma concentrations represent 1% of the approximate peak plasma concentration during human chemotherapy. Animals were sacrificed after 24 h and drug-DNA adduct frequency was determined from collected tumor tissue by AMS measurements of ^14C in tumor DNA. Carboplatin DNA-adduct levels correlate with PDX model sensitivity to cisplatin at 24 h after microdosing (FIG. 22A). Gemcitabine DNA-adduct levels correlate with PDX model sensitivity to gemcitabine at 24 h after microdosing (FIG. 22B). […] There is no significant difference in carboplatin-DNA monoadduct levels between the three resistant PDX models. […]

[17] = system: PDX Model BL0293; assay: drug-DNA adducts in PDX tumor by AMS; format: in vivo, NSG mice; conditions: microdose 0.092 mg/kg gemcitabine, 24 h
Source text: as §5, §6

[18] = system: 5637 and 5637R cell lines; assay: gemcitabine incorporation into DNA by AMS; format: cell-based, human
Description: The two cell lines were cultured as described above in Example 11. [^14C]Gemcitabine (FIG. 19) was labeled at position 2 (on the aromatic nucleobase) with a specific activity of 58.8 mCi/mmol (purchased from Moravek Biochemical). Unlabeled gemcitabine (USP Pharmaceutical Grade) was mixed with the labeled gemcitabine to achieve the correct specific activity for this experiment. […] This microdose is approximately 0.1% of a therapeutically relevant concentration. Cells were sampled for DNA extraction and AMS analysis of ^14C in DNA over 24 hours.

[19] = IV dose of 1000 mg/m^2 over 30 minutes; cited from earlier work
[20] = system: PDX Model BL0269; assay: drug-DNA adducts in PDX tumor by AMS; format: in vivo, NSG mice
Source text: as §5
(§7) NSG mice bearing the indicated PDX tumors were injected with a microdose of ^14C-labeled carboplatin (FIG. 22A) or ^14C-labeled gemcitabine (FIG. 22B). The microdose of ^14C-labeled carboplatin was 0.375 mg/kg carboplatin, 50,000 dpm/g. The microdose of ^14C-labeled gemcitabine was 0.092 mg/kg gemcitabine, 1000 dpm/g. The doses of each drug administered to the mice were chosen to target 1 μM in plasma concentration of carboplatin and 0.3 μM in plasma concentration of gemcitabine. These plasma concentrations represent 1% of the approximate peak plasma concentration during human chemotherapy. Animals were sacrificed after 24 h and drug-DNA adduct frequency was determined from collected tumor tissue by AMS measurements of ^14C in tumor DNA. Carboplatin DNA-adduct levels correlate with PDX model sensitivity to cisplatin at 24 h after microdosing (FIG. 22A). Gemcitabine DNA-adduct levels correlate with PDX model sensitivity to gemcitabine at 24 h after microdosing (FIG. 22B). […] There is no significant difference in carboplatin-DNA monoadduct levels between the three resistant PDX models. […] We conclude that microdose induced carboplatin-DNA monoadducts predicts sensitivity to cisplatin chemotherapy, and microdose induced gemcitabine incorporation predicts sensitivity to gemcitabine chemotherapy.
(§8) In this example we test whether gemcitabine/carboplatin (G/Carbo) combination therapy has an effect on the formation of drug-DNA adducts in this synergistic tumor model. In FIG. 23A, NGS mice bearing BL0645 xenographs were administered via tail vein injection a therapeutic dose of [^14C]carboplatin alone or a therapeutic dose of [^14C]carboplatin in combination with a therapeutic dose of gemcitabine. Carboplatin-DNA monoadducts were measured in tumor tissue 24 h after dosing. A therapeutic dose of the combination [^14C]carboplatin plus unlabeled gemcitabine leads to a significant increase in carboplatin-DNA monoadduct level (94.84±16.02 versus 209.6±64.66 adducts per 10^8 nucleotides, p=0.032) compared to treatment with carboplatin alone. In FIG. 23B, the same experiment was conducted in which the mice received a therapeutic dose of [^14C]gemcitabine alone or a therapeutic dose of [^14C]gemcitabine in combination with a therapeutic dose of unlabeled carboplatin. […]

[21] = system: PDX Model BL0645; assay: drug-DNA adducts in PDX tumor by AMS; format: in vivo, NSG mice; conditions: 24 h
Source text: as §5, §7, §8

In the case of `N.N.[Cl][Pt][Cl]` [cisplatin], the IC50 [1] is reported as 2.99 µM, the “Xenograph Sensitivity” value [2] is reported as “SEN” and the “Xenograph Sensitivity” value [3] is reported as “RES”. For the same compound, the “Xenograph Sensitivity” value [4] was “RES”, the “Xenograph Sensitivity” value [5] was “RES” and the IC50 [6] was 18.2 µM. The IC50 [7] was 20 µM, the IC50 [8] was 14.5 µM and the IC50 [9] was 4.23 µM. The IC50 [10] was 3.53 µM, the IC50 [11] was 11.7 ± 1.63 µM and the IC50 [12] was 5.28 ± 0.04 µM. For the same compound, the IC50 [13] was 6.2 ± 0.03 µM, the IC50 [14] was 8.35 ± 0.01 µM and the IC50 [15] was 12.6 ± 1.17 µM.

With `Nc1ccn([C@@H]2O[C@H](CO)[C@@H](O)C2(F)F)c(=O)n1` [gemcitabine] the gemcitabine adduct levels [16] was 13.1±10.2, the gemcitabine adduct levels [17] was 10.0±5.92 and the “gemcitabine incorporation in 5637R compared to parental 5637 cells” value ([18]; 0.03 μM 4 hours, at 24 hours) was “much lower gemcitabine incorporation”. The “cytotoxicity of subtherapeutic dose” value ([18]; 0.03 μM for 4 hours) was “no cytotoxicity”, the “Xenograph Sensitivity” value [2] was “SEN” and the “Xenograph Sensitivity” value [3] was “RES”. For the same compound, the “Xenograph Sensitivity” value [4] was “SEN”, the “Xenograph Sensitivity” value [5] was “RES” and the plasma concentration [19] was “about 30 μM”. The plasma half-life [19] was “about 60 minutes”, the gemcitabine-DNA adduct levels ([20]; control experiment FIG. 23F, microdose single agent or G/Carbo combination) was 2.44±0.492 adducts per 10^8 nucleotides and the gemcitabine adduct levels ([20]; microdose 0.092 mg/kg gemcitabine, 24 h (FIG. 22B)) was 3.17±0.278. For the same compound, the gemcitabine adducts ([21]; microdose 0.092 mg/kg gemcitabine alone or with carboplatin 0.375 mg/kg) was 2.44±0.880 adducts per 10^8 nucleotides and the gemcitabine adduct level ([21]; therapeutic 9.2 mg/kg gemcitabine alone or with carboplatin 37.5 mg/kg) was 169.2±9.129 adducts per 10^8 nucleotides.
